# Test results from US11389497B2, “Pharmaceutical composition for treating cancer” (Institute of Advance Sciences, Inc., priority 2019, dated 2022).
# Like-named read-outs stand apart in the source and are kept apart here.
# Columns and labels:
# ST88-14 cells [1] = assay: MTS cell viability / proliferation assay; assay type: cell-based, human; conditions: OSHP-1 50-300 ng/ml, 0-72 h
# Method: FIG. 4 illustrates a report on cell Viability Assays using the MTS Assay Kit (Colorimetric) (ab 197010) Cell proliferation, in accordance with an exemplary embodiment of the present disclosure. As shown, viability and cytotoxicity was assessed on cells. Cells were treated with the appropriate concentrations of OSHP-1 for 24, 48 and 72 h.
# Effect of OSHP-1 on Cell proliferation: We performed MTS assays using cells and treated with increasing concentrations of OSHP-1 (50-300 ng/ml) for 0-72 h.
# ST88-14 cells [2] = assay: Real-time quantitative PCR of tumorigenic genes in ST88-14 cells; assay type: cell-based, human; conditions: 48 h, normalized by GAPDH
# Method: Effect of OSHP-1 on the expression of tumorigenic genes. To ascertain whether OSHP-1 decreased the proliferation of ST 88-14 cells, by decreasing the expression of tumorigenic genes, total RNA was isolated from the ST88-14 cells as well as normal Human Schwann cells treated with varying concentrations of OSHP-1 (for 48 h) mentioned above. The RNA was reverse transcribed to cDNA and subjected to quantitative PCR using reverse and forward primers of FAX2, FOXN4, IGF2 TLXI genes (Lee et 2014), and was normalized by the expression of GAPDH (FIG. 5A).
# [3] = test system: lysine acetyltransferase 7 (KAT 7); assay: Immunoblot of nuclear fraction for histone acetyl transferases; assay type: cell-based, human; conditions: nuclear extract of ST88-14 cells, OSHP-1 50-300 ng/ml, 48 h
# HDAC2 = assay: Immunoblot of nuclear fraction for NuRD components; assay type: cell-based, human; conditions: nuclear extract of ST88-14 cells, OSHP-1 50-300 ng/ml, 48 h
# From the text: CBP, KAT2A, KAT7 acetyl transferases and CHD4, MTA2, MBD2/3, HDAC2, GATA 2 (NuRD) components and b-actin antibodies.
# [4] = test system: human metastatic melanoma; assay: Scratch assay in human metastatic melanoma; assay type: cell-based
# ST88-14 cells [5] = assay: Soft Agar colony formation assay (anchorage independent growth); assay type: cell-based, human; conditions: colonies counted manually
# From the text: FIG. 7A illustrates a report on effect of OSHP-1 on anchorage independent growth or metastasis, in accordance with an exemplary embodiment of the present disclosure: To determine whether OSHP-1 and its individual components can block the anchorage independent growth of ST88-14 cells, and Normal Human Schwann Cells, by subjecting the cells to Soft Agar colony formation assays the absence and presence of (A) OSHP-1.
# FIG. 7B illustrates a report on AA, RA, CA and mixture of three, and the colonies were counted manually, in accordance with an exemplary embodiment of the present disclosure.
# (§1) Effect of OSHP-1 on anchorage independent growth or metastasis. To determine whether OSHP-1 and its individual components can block the anchorage independent growth of ST-8814 cells, and Normal Human Schwann by subjecting the cells to Soft Agar colony formation assays in the absence and presence of OSHP-1, AA, RA, CA and mixture of three, and the colonies were counted manual. […] Additionally, we also tested whether OSHP-1 and AA, RA, and CA affect the invasiveness of human metastatic melanoma.
# ST88-14 cells [6] = assay: Scratch assay in ST88-14 cells; assay type: cell-based, human
# From the text: FIG. 7C illustrates a report on a scratch assay protocol performed using ST88-14 cells in the absence or presence of OSHP-1, AA, RA, CA, in accordance with an exemplary embodiment of the present disclosure.
# as §1
lysine acetyl transferase KAT 7 activity / levels [3],Molecule,viability and proliferation of ST88-14 cells (ST88-14 cells [1]),FAX2 (PAX2) expression (ST88-14 cells [2]),IGF2 expression (ST88-14 cells [2]),TLXI (TLX2) expression (ST88-14 cells [2]),HDAC2 activity / levels (HDAC2),migration of cells in scratch assay [4],anchorage independent growth (ST88-14 cells [5]),invasion and metastasis in scratch assay (ST88-14 cells [6]),invasion and metastasis in scratch assay (ST88-14 cells [6]; listed as RA),FOXN4 expression (ST88-14 cells [2])
,"CN1c2c(nc(N)[nH]c2=O)NCC1CNc1ccc(C(=O)N[C@@H](CCC(=O)O)C(=O)O)cc1 (some centres unmarked) [MTHF, 5-methyl tetra hydro folate]",increases the cell proliferation,,,,,,,,,
decreased,O=C1O[C@H]([C@@H](O)CO)C(O)=C1O [ascorbic acid],,down-regulated,down-regulated,down-regulated,increased,,,,,
,O=C(/C=C/c1ccc(O)c(O)c1)O[C@H](Cc1ccc(O)c(O)c1)C(=O)O [rosmarinic acid],,down-regulated,down-regulated,down-regulated,,the one contributing to this property,responsible for the blocking of anchorage independent growth,decreased metastasis,"responsible for the blocking of anchorage independent growth, invasion and metastasis of MPNSTs",
decreases,caffeoylquinic acid,,down-regulated,down-regulated,,,,,,,down-regulated
